Laboratory results published in paper PMC5224920, “Assessing the mechanism and therapeutic potential of modulators of the human Mediator complex-associated protein kinases” (eLife, 2016).

Test system: 12 single or co-culture in vitro tissue models of primary cells
Experiment: Culture/co-culture cell model panel, extracellular biomarkers (DiscoveRx); on CCL2/MCP-1: reference of the scale not given here; on CD141/Thrombomodulin: reference of the scale not given here; on CD142/Tissue Factor: reference of the scale not given here; on CXCL8/IL-8: reference of the scale not given here; on CXCL9/MIG: reference of the scale not given here; on M-CSF: reference of the scale not given here; on SRB: reference of the scale not given here
Type: cell-based, human
[1] = /HDFNo unstimulated fibroblasts, 1.00E0 nM
[2] = /HDFNo unstimulated fibroblasts, 1.00E1 nM
[3] = /HDFNo unstimulated fibroblasts, 1.00E2 nM
[4] = /HDFNo unstimulated fibroblasts, 1.00E3 nM
[5] = /HDFNo unstimulated fibroblasts, 1.00E4 nM

Cn1ncc2cc(-c3cnc(N)c(Cl)c3N3CCC4(CCNC4=O)CC3)ccc21 [CMPD 3]
CCL2/MCP-1 (3C, 1.00E0 nM): 0.030 | CD54/ICAM-1 (3C, 1.00E0 nM): -0.007 | CD87/uPAR (3C, 1.00E0 nM): -0.138 | CD106/VCAM-1 (3C, 1.00E0 nM): 0.033 | CD141/Thrombomodulin (3C, 1.00E0 nM): 0.044 | CD142/Tissue Factor (3C, 1.00E0 nM): 0.040 | CXCL8/IL-8 (3C, 1.00E0 nM): 0.00749 | CXCL9/MIG (3C, 1.00E0 nM): 0.008 | HLA-DR (3C, 1.00E0 nM): -0.007 | Proliferation (3C, 1.00E0 nM): -0.065 | SRB (3C, 1.00E0 nM): -0.049 | CCL2/MCP-1 (3C, 1.00E1 nM): -0.022 | CD54/ICAM-1 (3C, 1.00E1 nM): -0.036 | CD87/uPAR (3C, 1.00E1 nM): -0.247 | CD106/VCAM-1 (3C, 1.00E1 nM): 0.039 | CD141/Thrombomodulin (3C, 1.00E1 nM): 0.072 | CD142/Tissue Factor (3C, 1.00E1 nM): 0.133 | CXCL8/IL-8 (3C, 1.00E1 nM): -0.095 | CXCL9/MIG (3C, 1.00E1 nM): -0.00373 | HLA-DR (3C, 1.00E1 nM): -0.076 | Proliferation (3C, 1.00E1 nM): -0.054 | SRB (3C, 1.00E1 nM): -0.076 | CCL2/MCP-1 (3C, 1.00E2 nM): -0.124 | CD54/ICAM-1 (3C, 1.00E2 nM): -0.048 | CD87/uPAR (3C, 1.00E2 nM): -0.349 | CD106/VCAM-1 (3C, 1.00E2 nM): 0.034 | CD141/Thrombomodulin (3C, 1.00E2 nM): 0.056 | CD142/Tissue Factor (3C, 1.00E2 nM): 0.139 | CXCL8/IL-8 (3C, 1.00E2 nM): -0.180 | CXCL9/MIG (3C, 1.00E2 nM): -0.007 | HLA-DR (3C, 1.00E2 nM): -0.144 | Proliferation (3C, 1.00E2 nM): -0.088 | SRB (3C, 1.00E2 nM): -0.094 | CCL2/MCP-1 (3C, 1.00E3 nM): -0.168 | CD54/ICAM-1 (3C, 1.00E3 nM): -0.045 | CD87/uPAR (3C, 1.00E3 nM): -0.370 | CD106/VCAM-1 (3C, 1.00E3 nM): 0.037 | CD141/Thrombomodulin (3C, 1.00E3 nM): 0.050 | CD142/Tissue Factor (3C, 1.00E3 nM): 0.150 | CXCL8/IL-8 (3C, 1.00E3 nM): -0.301 | CXCL9/MIG (3C, 1.00E3 nM): -0.026 | HLA-DR (3C, 1.00E3 nM): -0.148 | Proliferation (3C, 1.00E3 nM): -0.102 | SRB (3C, 1.00E3 nM): -0.099 | CCL2/MCP-1 (3C, 1.00E4 nM): -0.253 | CD54/ICAM-1 (3C, 1.00E4 nM): -0.033 | CD87/uPAR (3C, 1.00E4 nM): -0.407 | CD106/VCAM-1 (3C, 1.00E4 nM): 0.036 | CD141/Thrombomodulin (3C, 1.00E4 nM): 0.036 | CD142/Tissue Factor (3C, 1.00E4 nM): 0.224 | CXCL8/IL-8 (3C, 1.00E4 nM): -0.302 | CXCL9/MIG (3C, 1.00E4 nM): -0.020 | HLA-DR (3C, 1.00E4 nM): -0.278 | Proliferation (3C, 1.00E4 nM): -0.404 | SRB (3C, 1.00E4 nM): -0.222 | CCL2/MCP-1 (/HDF3CT, 1.00E0 nM): -0.010 | CD54/ICAM-1 (/HDF3CT, 1.00E0 nM): -0.008 | CD106/VCAM-1 (/HDF3CT, 1.00E0 nM): 0.026 | CXCL8/IL-8 (/HDF3CT, 1.00E0 nM): -0.039 | CXCL9/MIG (/HDF3CT, 1.00E0 nM): 0.020 | CXCL10/IP-10 (/HDF3CT, 1.00E0 nM): 0.003 | Collagen I (/HDF3CT, 1.00E0 nM): 0.036 | M-CSF (/HDF3CT, 1.00E0 nM): 0.008 | MMP-1 (/HDF3CT, 1.00E0 nM): 0.097 | PAI-I (/HDF3CT, 1.00E0 nM): 0.039 | SRB (/HDF3CT, 1.00E0 nM): 0.007 | TIMP-2 (/HDF3CT, 1.00E0 nM): 0.070 | CCL2/MCP-1 (/HDF3CT, 1.00E1 nM): -0.048 | CD54/ICAM-1 (/HDF3CT, 1.00E1 nM): -0.062 | CD106/VCAM-1 (/HDF3CT, 1.00E1 nM): 0.0026 | CXCL8/IL-8 (/HDF3CT, 1.00E1 nM): -0.028 | CXCL9/MIG (/HDF3CT, 1.00E1 nM): 0.010 | CXCL10/IP-10 (/HDF3CT, 1.00E1 nM): 0.017 | Collagen I (/HDF3CT, 1.00E1 nM): 0.021 | M-CSF (/HDF3CT, 1.00E1 nM): -0.050 | MMP-1 (/HDF3CT, 1.00E1 nM): 0.095 | PAI-I (/HDF3CT, 1.00E1 nM): -0.027 | SRB (/HDF3CT, 1.00E1 nM): -0.007 | TIMP-2 (/HDF3CT, 1.00E1 nM): 0.045 | CCL2/MCP-1 (/HDF3CT, 1.00E2 nM): -0.069 | CD54/ICAM-1 (/HDF3CT, 1.00E2 nM): -0.067 | CD106/VCAM-1 (/HDF3CT, 1.00E2 nM): 0.015 | CXCL8/IL-8 (/HDF3CT, 1.00E2 nM): -0.099 | CXCL9/MIG (/HDF3CT, 1.00E2 nM): -0.022 | CXCL10/IP-10 (/HDF3CT, 1.00E2 nM): 0.012 | Collagen I (/HDF3CT, 1.00E2 nM): 0.00367 | M-CSF (/HDF3CT, 1.00E2 nM): -0.024 | MMP-1 (/HDF3CT, 1.00E2 nM): 0.086 | PAI-I (/HDF3CT, 1.00E2 nM): -0.074 | SRB (/HDF3CT, 1.00E2 nM): -0.023 | TIMP-2 (/HDF3CT, 1.00E2 nM): 0.070 | CCL2/MCP-1 (/HDF3CT, 1.00E3 nM): -0.111 | CD54/ICAM-1 (/HDF3CT, 1.00E3 nM): -0.061 | CD106/VCAM-1 (/HDF3CT, 1.00E3 nM): 0.021 | CXCL8/IL-8 (/HDF3CT, 1.00E3 nM): -0.189 | CXCL9/MIG (/HDF3CT, 1.00E3 nM): -0.040 | CXCL10/IP-10 (/HDF3CT, 1.00E3 nM): 0.00333 | Collagen I (/HDF3CT, 1.00E3 nM): 0.027 | M-CSF (/HDF3CT, 1.00E3 nM): -0.00149 | MMP-1 (/HDF3CT, 1.00E3 nM): 0.040 | PAI-I (/HDF3CT, 1.00E3 nM): -0.123 | SRB (/HDF3CT, 1.00E3 nM): 0.00334 | TIMP-2 (/HDF3CT, 1.00E3 nM): 0.107 | CCL2/MCP-1 (/HDF3CT, 1.00E4 nM): -0.053 | CD54/ICAM-1 (/HDF3CT, 1.00E4 nM): -0.081 | CD106/VCAM-1 (/HDF3CT, 1.00E4 nM): 0.009 | CXCL8/IL-8 (/HDF3CT, 1.00E4 nM): -0.144 | CXCL9/MIG (/HDF3CT, 1.00E4 nM): -0.049 | CXCL10/IP-10 (/HDF3CT, 1.00E4 nM): -0.00029 | Collagen I (/HDF3CT, 1.00E4 nM): 0.010 | M-CSF (/HDF3CT, 1.00E4 nM): -0.092 | MMP-1 (/HDF3CT, 1.00E4 nM): 0.107 | PAI-I (/HDF3CT, 1.00E4 nM): -0.208 | SRB (/HDF3CT, 1.00E4 nM): -0.230 | TIMP-2 (/HDF3CT, 1.00E4 nM): 0.271 | CXCL8/IL-8 [1]: 0.059 | CXCL9/MIG [1]: 0.119 | CXCL10/IP-10 [1]: 0.034 | CXCL11/I-TAC [1]: 0.074 | EGFR [1]: 0.022 | M-CSF [1]: 0.066 | MMP-1 [1]: 0.081 | PAI-I [1]: 0.044 | Proliferation_72hr [1]: -0.013 | SRB [1]: 0.039 | TIMP-1 [1]: 0.047 | TIMP-2 [1]: 0.100 | CXCL8/IL-8 [2]: 0.037 | CXCL9/MIG [2]: 0.058 | CXCL10/IP-10 [2]: 0.054 | CXCL11/I-TAC [2]: -0.002 | EGFR [2]: 0.009 | M-CSF [2]: 0.048 | MMP-1 [2]: 0.040 | PAI-I [2]: -0.042 | Proliferation_72hr [2]: 0.000939 | SRB [2]: 0.011 | TIMP-1 [2]: 0.040 | TIMP-2 [2]: 0.045 | CXCL8/IL-8 [3]: 0.041 | CXCL9/MIG [3]: 0.091 | CXCL10/IP-10 [3]: 0.056 | CXCL11/I-TAC [3]: -0.021 | EGFR [3]: 0.019 | M-CSF [3]: 0.020 | MMP-1 [3]: 0.030 | PAI-I [3]: -0.011 | Proliferation_72hr [3]: 0.020 | SRB [3]: -0.014 | TIMP-1 [3]: -0.015 | TIMP-2 [3]: 0.091 | CXCL8/IL-8 [4]: 0.013 | CXCL9/MIG [4]: 0.053 | CXCL10/IP-10 [4]: 0.0016 | CXCL11/I-TAC [4]: -0.010 | EGFR [4]: 0.012 | M-CSF [4]: -0.000464 | MMP-1 [4]: 0.050 | PAI-I [4]: -0.034 | Proliferation_72hr [4]: 0.048 | SRB [4]: -0.021 | TIMP-1 [4]: 0.010 | TIMP-2 [4]: 0.080 | CXCL8/IL-8 [5]: 0.011 | CXCL9/MIG [5]: -0.074 | CXCL10/IP-10 [5]: -0.076 | CXCL11/I-TAC [5]: 0.023 | EGFR [5]: 0.045 | M-CSF [5]: 0.010 | MMP-1 [5]: 0.054 | PAI-I [5]: -0.028 | Proliferation_72hr [5]: 0.002 | SRB [5]: -0.00187 | TIMP-1 [5]: -0.007 | TIMP-2 [5]: 0.202 | CCL2/MCP-1 (/HDFNo, 1.00E0 nM): 0.028 | CD54/ICAM-1 (/HDFNo, 1.00E0 nM): 0.066 | CD106/VCAM-1 (/HDFNo, 1.00E0 nM): 0.114 | Collagen I (/HDFNo, 1.00E0 nM): 0.082 | Collagen III (/HDFNo, 1.00E0 nM): 0.065 | CCL2/MCP-1 (/HDFNo, 1.00E1 nM): 0.027 | CD54/ICAM-1 (/HDFNo, 1.00E1 nM): 0.074 | CD106/VCAM-1 (/HDFNo, 1.00E1 nM): 0.048 | Collagen I (/HDFNo, 1.00E1 nM): 0.041 | Collagen III (/HDFNo, 1.00E1 nM): 0.032 | CCL2/MCP-1 (/HDFNo, 1.00E2 nM): 0.042 | CD54/ICAM-1 (/HDFNo, 1.00E2 nM): -0.013 | CD106/VCAM-1 (/HDFNo, 1.00E2 nM): 0.065 | Collagen I (/HDFNo, 1.00E2 nM): 0.061 | Collagen III (/HDFNo, 1.00E2 nM): 0.079 | CCL2/MCP-1 (/HDFNo, 1.00E3 nM): 0.025 | CD54/ICAM-1 (/HDFNo, 1.00E3 nM): 0.014 | CD106/VCAM-1 (/HDFNo, 1.00E3 nM): 0.026 | Collagen I (/HDFNo, 1.00E3 nM): 0.099 | Collagen III (/HDFNo, 1.00E3 nM): 0.101
